Measured values as given in ChEMBL document CHEMBL1201862, “PubChem BioAssay data set” (2004).
The source made the active and inactive calls.

Key:
[1] = target: Nuclear receptor subfamily 5 group A member 2 (Homo sapiens, UniProt O00482); assay type: functional, cell-based;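 note: HEK293T cells transfected with LRH-1 and a StAR promoter luciferase reporter; potency for inhibitors that lower LRH-1 driven reporter light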
Steroidogenic factor 1 = Steroidogenic factor 1 (Homo sapiens, UniProt Q13285); experiment: Counterscreen for inverse agonists of the liver receptor homolog-1 (LRH-1; NR5A2): Luminescence-based cell-based high throughput dose response assay to identify inverse agonists of the Steroidogenic Factor 1 Nuclear Receptor (SF1; NR5A1).; assay type: functional
[2] = nonselective StAR promoter luciferase inhibitors – cell-based, luminescence, luciferase reporter, counter-screen for LRH-1 inverse agonist project, dose response (AID 651969); assay type: functional
Cytochrome P450 3A4 = Cytochrome P450 3A4 (Homo sapiens, UniProt P08684);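 note: CYP3A4 tested as one member of a cytochrome P450 panel screen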
[3] = inhibition of ADAM10 peptide cleavage – biochemical, FRET peptide substrate, recombinant human ADAM10, selectivity assay for ADAM17 exosite inhibitor project, dose response (AID 743259);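 note: ADAM10 enzyme cleaving a FRET peptide substrate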
[4] = viability loss in HeLa cells – cytotoxicity control for MgcRacGAP inhibitor project, dose response (AID 624300); assay type: functional
[5] = target: T1, Rac GTPase-activating protein 1 (Homo sapiens, UniProt Q9H0H5); experiment: blockers of MgcRacGAP-driven Rac1 GTP hydrolysis – biochemical, ADP Hunter fluorescence, primary and confirmatory, confirmation (AID 624330); assay type: functional
T1 sequence (Q9H0H5 whole entry): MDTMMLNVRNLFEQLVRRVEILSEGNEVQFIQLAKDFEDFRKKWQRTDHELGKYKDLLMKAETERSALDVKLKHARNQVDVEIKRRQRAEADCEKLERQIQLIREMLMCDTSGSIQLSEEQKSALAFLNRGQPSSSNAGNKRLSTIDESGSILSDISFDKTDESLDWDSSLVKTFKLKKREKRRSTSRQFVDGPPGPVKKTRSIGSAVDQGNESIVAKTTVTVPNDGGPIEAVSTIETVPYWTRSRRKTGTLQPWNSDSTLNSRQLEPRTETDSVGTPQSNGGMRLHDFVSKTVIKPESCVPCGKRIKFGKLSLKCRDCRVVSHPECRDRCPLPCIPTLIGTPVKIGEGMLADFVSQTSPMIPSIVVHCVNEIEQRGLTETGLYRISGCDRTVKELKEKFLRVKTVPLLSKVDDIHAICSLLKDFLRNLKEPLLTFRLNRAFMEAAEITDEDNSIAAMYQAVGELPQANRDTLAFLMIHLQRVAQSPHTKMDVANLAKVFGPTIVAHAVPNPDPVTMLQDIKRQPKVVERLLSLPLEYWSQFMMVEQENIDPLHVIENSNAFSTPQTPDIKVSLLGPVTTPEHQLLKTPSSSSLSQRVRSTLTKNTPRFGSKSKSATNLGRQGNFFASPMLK

Fatty acid synthase [6] = target: T2, Fatty acid synthase (Homo sapiens, UniProt P49327); experiment: inhibition of human FAS-TE enzyme activity – biochemical, endpoint fluorescence intensity, uHTS hits, dose response (AID 624327); assay type: functional;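 note: fluorescence from hydrolysis of an O-methyl fluorescein acyl ester substrate by the enzyme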
Fatty acid synthase [7] = target: T2, Fatty acid synthase; experiment: inhibition of human FAS-TE enzyme activity – biochemical, kinetic fluorescence intensity, dose response (AID 624326); assay type: functional;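 note: rate of fluorescence rise from hydrolysis of a fluorogenic O-methyl fluorescein ester substrate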
[8] = Luminescence Cell-Based Dose Confirmation HTS to Identify Activators of 5'UTR Stem-Loop Driven Alpha-Synuclein mRNA Translation in H4 Neuroglioblastoma Cells. [Related pubchem assays: 1829 (Project Summary), 1814 (Primary HTS)]; assay type: functional
[9] = Luminescence Cell-Based Dose Response HTS to Identify Activators of Luciferase Translation or Activity in H4 […] Cells. [Related pubchem assays: 1829 (Project Summary), 1814 (Primary HTS)]; assay type: functional
H4 = experiment: Luminescence Cell-Based Dose Response HTS to Identify Activators of 5'UTR Stem-Loop Driven Prion Protein mRNA Translation in H4 Neuroglioblastoma Cells. [Related pubchem assays: 1829 (Project Summary), 1814 (Primary HTS)]; assay type: functional; settings: Homo sapiens
[10] = target: T3, Histone-lysine N-methyltransferase NSD2 (Homo sapiens, UniProt O96028); assay type: biochemical
T3 sequence (O96028 whole entry): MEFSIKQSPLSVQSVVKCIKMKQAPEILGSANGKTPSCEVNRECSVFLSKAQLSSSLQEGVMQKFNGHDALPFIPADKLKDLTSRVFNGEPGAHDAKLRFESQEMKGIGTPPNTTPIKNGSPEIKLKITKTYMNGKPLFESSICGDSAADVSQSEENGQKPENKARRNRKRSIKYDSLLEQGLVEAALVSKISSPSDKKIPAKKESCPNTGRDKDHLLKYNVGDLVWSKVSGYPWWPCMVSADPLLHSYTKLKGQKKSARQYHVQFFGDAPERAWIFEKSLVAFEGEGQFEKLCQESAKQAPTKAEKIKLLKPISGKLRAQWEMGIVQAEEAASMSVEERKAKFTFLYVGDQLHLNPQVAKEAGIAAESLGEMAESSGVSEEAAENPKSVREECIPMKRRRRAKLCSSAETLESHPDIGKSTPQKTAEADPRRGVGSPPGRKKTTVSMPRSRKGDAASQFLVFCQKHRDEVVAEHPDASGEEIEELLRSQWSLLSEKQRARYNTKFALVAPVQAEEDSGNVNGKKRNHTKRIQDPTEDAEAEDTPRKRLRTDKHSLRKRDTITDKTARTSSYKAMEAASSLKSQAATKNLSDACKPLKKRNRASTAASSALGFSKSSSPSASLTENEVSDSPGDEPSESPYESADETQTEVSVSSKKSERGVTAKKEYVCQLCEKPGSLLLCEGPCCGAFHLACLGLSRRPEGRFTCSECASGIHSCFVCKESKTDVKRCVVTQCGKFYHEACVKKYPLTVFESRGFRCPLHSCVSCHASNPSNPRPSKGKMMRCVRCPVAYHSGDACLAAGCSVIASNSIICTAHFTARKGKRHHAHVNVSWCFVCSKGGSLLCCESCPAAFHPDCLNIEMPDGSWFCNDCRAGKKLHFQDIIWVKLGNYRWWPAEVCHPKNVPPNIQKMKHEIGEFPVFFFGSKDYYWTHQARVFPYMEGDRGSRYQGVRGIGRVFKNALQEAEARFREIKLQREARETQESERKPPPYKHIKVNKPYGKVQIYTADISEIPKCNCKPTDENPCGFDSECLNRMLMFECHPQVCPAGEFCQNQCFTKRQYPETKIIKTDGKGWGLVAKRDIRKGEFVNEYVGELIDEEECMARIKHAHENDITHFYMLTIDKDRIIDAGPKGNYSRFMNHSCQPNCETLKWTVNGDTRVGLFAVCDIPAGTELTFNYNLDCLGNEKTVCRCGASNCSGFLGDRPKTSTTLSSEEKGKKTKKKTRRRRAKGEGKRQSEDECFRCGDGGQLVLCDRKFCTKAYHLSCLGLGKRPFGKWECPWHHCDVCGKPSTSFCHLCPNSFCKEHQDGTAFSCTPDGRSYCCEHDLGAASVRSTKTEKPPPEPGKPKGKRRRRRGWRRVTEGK

[11] = target: T4, Small ubiquitin-related modifier 1 (Homo sapiens, UniProt P63165); experiment: SUMO1 protein interaction blockers, potency – biochemical, fluorescence polarization, uHTS hits, dose response (AID 624382); assay type: functional; settings: read-out: IC50_Mean
[12] = target: T4, Small ubiquitin-related modifier 1; experiment: SUMO1 protein-protein binding blockers, potency – biochemical, FRET, dose response (AID 624383); assay type: functional; settings: read-out: IC50_Mean
[13] = target: T5, DNA repair and recombination protein RAD54-like (Homo sapiens, UniProt Q92698); experiment: RAD54 Holliday junction migration blockers – biochemical, fluorescence, cherry-picked samples, dose series, confirmation (AID 651657); assay type: functional
T5 sequence (Q92698 whole entry): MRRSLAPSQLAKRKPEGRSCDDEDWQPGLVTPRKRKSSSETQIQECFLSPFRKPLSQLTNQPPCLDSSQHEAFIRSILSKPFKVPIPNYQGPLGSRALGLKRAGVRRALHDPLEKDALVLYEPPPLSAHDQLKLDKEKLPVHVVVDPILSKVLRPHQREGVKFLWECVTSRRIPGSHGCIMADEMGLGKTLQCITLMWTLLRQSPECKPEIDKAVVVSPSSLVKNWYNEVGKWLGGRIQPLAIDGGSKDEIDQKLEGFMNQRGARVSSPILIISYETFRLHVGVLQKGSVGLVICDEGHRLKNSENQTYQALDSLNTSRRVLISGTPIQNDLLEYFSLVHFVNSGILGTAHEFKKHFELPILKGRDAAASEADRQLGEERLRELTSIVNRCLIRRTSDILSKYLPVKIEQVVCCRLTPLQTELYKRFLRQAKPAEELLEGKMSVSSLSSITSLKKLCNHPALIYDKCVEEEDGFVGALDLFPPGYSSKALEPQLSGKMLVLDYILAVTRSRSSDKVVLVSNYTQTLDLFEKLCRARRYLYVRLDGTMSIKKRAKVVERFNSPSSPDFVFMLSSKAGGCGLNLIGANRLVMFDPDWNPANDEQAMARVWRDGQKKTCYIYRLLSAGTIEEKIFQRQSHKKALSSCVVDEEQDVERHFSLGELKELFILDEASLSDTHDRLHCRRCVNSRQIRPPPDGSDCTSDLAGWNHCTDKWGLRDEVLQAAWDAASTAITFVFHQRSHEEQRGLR

[14] = target: T6, DNA repair protein RAD52 homolog (Homo sapiens, UniProt P43351); assay type: functional, biochemical
T6 sequence (P43351 whole entry): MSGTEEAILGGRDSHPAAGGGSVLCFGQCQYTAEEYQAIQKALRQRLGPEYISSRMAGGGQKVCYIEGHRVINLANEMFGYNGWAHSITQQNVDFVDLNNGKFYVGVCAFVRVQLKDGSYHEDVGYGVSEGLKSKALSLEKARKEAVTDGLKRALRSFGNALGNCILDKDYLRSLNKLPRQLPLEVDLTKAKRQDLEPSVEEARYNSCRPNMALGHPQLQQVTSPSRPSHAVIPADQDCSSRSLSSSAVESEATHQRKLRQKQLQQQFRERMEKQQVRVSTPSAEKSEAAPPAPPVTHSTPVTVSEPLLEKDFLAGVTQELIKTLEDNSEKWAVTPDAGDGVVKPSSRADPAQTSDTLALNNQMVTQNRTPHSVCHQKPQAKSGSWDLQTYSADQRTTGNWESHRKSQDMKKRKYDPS

[15] = viability loss in HepG2 hepatoma cells – cell-based, ATP luminescence, cherry-pick, activator set 2, cytotoxicity control, dose response (AID 1053143); assay type: functional
[16] = target: Disintegrin and metalloproteinase domain-containing protein 17 (Homo sapiens, UniProt P78536); experiment: exosite inhibitors of ADAM17, dose response, biochemical (AID 743260)
[17] = T. cruzi growth inhibition in host cells, dose response, cell-based, plate reader, dry powder, set 2 (AID 652275); assay type: functional
[18] = Luminescence Cell-Based Dose Retest to Confirm Inhibitors of Cancer Stem Cells. [Related pubchem assays (depositor defined):AID2717, AID2721]; assay type: functional; settings: Homo sapiens

T2 sequence (P49327 whole entry): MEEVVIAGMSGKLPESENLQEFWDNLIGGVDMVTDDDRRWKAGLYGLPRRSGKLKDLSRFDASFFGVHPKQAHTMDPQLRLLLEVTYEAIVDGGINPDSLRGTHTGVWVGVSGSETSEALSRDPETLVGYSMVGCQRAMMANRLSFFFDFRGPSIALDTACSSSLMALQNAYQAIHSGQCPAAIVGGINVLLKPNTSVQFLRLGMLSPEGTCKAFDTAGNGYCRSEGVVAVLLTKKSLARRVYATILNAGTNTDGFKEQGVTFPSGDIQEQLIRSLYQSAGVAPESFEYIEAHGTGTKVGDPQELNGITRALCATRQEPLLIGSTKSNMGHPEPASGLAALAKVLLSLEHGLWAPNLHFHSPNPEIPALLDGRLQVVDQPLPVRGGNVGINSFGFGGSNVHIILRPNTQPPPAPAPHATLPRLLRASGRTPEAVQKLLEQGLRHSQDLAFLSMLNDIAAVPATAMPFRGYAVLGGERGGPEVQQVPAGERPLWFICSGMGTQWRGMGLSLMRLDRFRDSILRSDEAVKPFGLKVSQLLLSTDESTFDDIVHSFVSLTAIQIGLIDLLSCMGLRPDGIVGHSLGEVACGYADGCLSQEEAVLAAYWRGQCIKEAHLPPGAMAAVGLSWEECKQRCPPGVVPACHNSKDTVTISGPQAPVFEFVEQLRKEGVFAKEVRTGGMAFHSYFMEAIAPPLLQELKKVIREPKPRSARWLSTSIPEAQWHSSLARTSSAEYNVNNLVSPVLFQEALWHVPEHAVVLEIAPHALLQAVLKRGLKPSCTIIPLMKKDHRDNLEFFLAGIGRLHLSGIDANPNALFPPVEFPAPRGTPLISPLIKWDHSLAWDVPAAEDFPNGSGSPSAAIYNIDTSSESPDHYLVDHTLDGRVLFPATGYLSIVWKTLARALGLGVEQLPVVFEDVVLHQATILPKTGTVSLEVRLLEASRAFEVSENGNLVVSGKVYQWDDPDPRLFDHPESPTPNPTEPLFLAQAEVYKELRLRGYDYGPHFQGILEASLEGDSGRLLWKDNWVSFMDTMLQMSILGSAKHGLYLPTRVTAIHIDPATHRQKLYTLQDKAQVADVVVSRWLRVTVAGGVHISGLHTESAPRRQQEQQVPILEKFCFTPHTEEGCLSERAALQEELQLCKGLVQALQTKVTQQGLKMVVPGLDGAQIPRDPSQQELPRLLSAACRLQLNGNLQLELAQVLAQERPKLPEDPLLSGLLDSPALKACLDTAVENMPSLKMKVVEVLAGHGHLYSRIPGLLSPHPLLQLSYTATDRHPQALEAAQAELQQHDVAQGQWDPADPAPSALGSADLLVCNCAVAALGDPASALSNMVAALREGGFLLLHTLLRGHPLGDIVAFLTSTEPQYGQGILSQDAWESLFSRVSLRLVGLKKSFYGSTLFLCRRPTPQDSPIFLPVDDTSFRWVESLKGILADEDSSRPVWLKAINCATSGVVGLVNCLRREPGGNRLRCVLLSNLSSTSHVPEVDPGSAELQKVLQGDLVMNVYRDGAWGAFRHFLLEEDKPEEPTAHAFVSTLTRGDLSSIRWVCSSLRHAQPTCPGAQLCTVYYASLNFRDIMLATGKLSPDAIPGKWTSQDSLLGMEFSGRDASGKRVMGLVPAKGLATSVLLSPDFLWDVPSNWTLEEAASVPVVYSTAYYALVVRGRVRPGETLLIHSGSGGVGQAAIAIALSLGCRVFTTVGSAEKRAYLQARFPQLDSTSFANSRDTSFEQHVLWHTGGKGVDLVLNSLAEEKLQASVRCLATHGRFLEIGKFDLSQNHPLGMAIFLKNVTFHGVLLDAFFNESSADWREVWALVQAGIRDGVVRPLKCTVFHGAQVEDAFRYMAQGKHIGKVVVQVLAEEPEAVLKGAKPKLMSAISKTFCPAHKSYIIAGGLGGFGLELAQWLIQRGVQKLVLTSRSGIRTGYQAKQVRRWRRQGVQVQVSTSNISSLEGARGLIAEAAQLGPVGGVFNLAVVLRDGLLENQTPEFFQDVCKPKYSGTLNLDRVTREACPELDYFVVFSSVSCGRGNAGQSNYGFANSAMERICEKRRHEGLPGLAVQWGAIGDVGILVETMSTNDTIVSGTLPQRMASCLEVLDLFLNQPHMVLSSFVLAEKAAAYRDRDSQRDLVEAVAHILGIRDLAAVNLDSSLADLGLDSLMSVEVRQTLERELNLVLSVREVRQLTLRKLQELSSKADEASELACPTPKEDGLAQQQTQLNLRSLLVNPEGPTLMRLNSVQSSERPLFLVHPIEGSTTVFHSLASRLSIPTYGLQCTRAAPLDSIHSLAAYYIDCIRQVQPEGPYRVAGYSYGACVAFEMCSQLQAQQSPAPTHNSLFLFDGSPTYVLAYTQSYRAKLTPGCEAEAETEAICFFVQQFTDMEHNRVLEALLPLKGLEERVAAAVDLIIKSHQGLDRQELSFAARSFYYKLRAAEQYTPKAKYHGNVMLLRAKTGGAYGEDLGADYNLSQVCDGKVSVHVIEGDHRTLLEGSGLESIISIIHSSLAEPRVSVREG
Chain of Steroidogenic factor 1 (Q13285 whole entry): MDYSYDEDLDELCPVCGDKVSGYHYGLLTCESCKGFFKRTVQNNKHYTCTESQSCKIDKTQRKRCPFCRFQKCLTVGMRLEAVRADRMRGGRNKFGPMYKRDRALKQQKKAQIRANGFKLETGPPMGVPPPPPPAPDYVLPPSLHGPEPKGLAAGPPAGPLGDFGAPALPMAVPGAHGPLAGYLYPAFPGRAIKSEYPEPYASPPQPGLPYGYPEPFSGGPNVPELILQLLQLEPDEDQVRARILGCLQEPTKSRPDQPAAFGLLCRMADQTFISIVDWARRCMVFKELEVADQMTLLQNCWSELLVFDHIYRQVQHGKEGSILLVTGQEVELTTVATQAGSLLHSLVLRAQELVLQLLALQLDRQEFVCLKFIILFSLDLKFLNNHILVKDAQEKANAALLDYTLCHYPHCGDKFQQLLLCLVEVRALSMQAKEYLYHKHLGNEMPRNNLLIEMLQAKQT
Chain of Nuclear receptor subfamily 5 group A member 2 (O00482 whole entry): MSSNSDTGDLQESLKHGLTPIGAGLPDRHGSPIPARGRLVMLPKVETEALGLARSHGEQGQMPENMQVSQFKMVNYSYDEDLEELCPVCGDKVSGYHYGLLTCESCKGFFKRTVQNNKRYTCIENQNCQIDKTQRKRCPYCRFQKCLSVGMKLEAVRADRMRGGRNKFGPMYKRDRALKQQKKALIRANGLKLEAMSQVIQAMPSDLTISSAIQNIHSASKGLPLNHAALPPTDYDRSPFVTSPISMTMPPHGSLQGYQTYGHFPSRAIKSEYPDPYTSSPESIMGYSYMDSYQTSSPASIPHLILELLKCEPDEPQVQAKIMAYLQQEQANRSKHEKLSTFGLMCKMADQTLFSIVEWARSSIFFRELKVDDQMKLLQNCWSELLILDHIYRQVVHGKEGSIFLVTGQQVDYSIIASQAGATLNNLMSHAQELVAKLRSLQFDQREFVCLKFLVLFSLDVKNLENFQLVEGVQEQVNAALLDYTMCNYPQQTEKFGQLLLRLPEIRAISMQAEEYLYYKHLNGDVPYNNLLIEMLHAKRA
T4 sequence (P63165 whole entry): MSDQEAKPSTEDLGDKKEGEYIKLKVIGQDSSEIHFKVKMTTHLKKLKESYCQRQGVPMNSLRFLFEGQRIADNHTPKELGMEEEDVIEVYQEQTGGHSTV
Chain of Disintegrin and metalloproteinase domain-containing protein 17 (P78536 whole entry, the tested form may be a part): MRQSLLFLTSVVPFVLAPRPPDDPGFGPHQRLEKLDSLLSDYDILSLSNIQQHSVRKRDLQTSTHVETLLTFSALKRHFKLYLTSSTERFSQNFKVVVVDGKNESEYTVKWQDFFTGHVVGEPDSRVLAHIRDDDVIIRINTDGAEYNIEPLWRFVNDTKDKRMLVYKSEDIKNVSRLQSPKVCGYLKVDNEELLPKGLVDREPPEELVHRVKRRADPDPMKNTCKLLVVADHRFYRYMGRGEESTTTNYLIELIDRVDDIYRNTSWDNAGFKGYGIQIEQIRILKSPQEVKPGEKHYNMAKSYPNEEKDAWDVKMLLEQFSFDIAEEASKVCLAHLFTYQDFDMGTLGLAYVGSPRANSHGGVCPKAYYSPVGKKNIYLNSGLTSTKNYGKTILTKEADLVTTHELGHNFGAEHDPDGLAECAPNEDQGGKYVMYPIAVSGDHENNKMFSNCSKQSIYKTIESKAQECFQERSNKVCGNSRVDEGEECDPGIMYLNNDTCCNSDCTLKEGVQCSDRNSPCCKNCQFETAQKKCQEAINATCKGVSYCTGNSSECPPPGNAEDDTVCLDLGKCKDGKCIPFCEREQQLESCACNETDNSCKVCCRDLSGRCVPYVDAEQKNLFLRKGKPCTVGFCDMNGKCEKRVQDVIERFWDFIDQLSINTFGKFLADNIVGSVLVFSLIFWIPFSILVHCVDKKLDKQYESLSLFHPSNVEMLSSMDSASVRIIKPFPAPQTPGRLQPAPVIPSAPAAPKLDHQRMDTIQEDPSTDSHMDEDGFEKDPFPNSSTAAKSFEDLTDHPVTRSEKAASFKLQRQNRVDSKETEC
Chain of Cytochrome P450 3A4 (P08684 whole entry): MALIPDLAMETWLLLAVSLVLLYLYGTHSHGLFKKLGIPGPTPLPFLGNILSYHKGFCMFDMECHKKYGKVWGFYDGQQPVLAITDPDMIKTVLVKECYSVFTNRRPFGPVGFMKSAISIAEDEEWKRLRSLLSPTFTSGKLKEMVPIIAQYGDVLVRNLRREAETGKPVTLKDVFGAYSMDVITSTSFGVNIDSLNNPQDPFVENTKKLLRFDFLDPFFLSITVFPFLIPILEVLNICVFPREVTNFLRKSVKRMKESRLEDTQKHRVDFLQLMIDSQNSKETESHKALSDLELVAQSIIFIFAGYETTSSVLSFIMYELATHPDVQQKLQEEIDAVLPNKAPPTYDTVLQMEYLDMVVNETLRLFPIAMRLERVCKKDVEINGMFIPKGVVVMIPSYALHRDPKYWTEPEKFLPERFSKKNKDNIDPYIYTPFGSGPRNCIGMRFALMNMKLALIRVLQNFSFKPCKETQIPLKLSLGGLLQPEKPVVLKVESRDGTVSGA

Compound: Cc1sc(NC(=O)C(C)C)c(C(=O)Nc2ccccc2)c1C
- IC50 [1]: 11.6 µM (inactive)
- IC50 (Steroidogenic factor 1): 3.85 µM (active)
- IC50 [2]: 35.9 µM (inactive)
- AC50 (Cytochrome P450 3A4): inconclusive

Compound: COc1cc(C(c2c(C)n[nH]c2O)c2c(C)n[nH]c2O)ccc1OCc1ccc([N+](=O)[O-])cc1
- IC50 [3]: > 23.2 µM (inactive)

Compound: COc1ccc(N2CCN(CC(O)COC(c3ccc(F)cc3)c3ccc(F)cc3)CC2)cc1 (stereo not drawn)
- CC50 [4]: 100 µM (active)
- IC50 [5]: 92.8 µM (active)

Compound: Cc1ccn2c(=O)nc(SCC(=O)Nc3ccc4c(c3)OCCO4)nc2c1
- IC50 [1]: 35.9 µM (inactive)
- IC50 (Steroidogenic factor 1): 3.98 µM (active)
- IC50 [2]: 35.9 µM (inactive)

Compound: CN(Cc1ccccc1)C(=O)COC(=O)c1cc([N+](=O)[O-])ccc1N1CCOCC1
- IC50 (Fatty acid synthase [6]): 0.539 µM (active)
- IC50 (Fatty acid synthase [7]): 0.617 µM (active)

Compound: CCn1c(SC(C)C)nnc1-c1cc(-c2ccccc2)sc1N
- EC50 [8]: > 120 µM (not active)
- EC50 [9]: > 120 µM (not active)
- EC50 (H4): > 120 µM (not active)
- CC50 [4]: 100 µM (active)
- IC50 [5]: 31.1 µM (active)

Compound: Cc1cc(/C=C2\C(=O)NC(=O)N(Cc3ccccc3Cl)C2=O)c(C)n1-c1ccc(C(=O)O)cc1
- AC50 [10]: > 20 µM (inactive)

Compound: COCCCNC(=O)C[C@H]1C[C@H](C(=O)N2CCOCC2)[C@@]2(CCC3CCCC3)c3[nH]c4cc(-c5ccco5)ccc4c3CCN2C1=O
- IC50 (Fatty acid synthase [6]): 6.51 µM (active)
- IC50 (Fatty acid synthase [7]): 9.08 µM (active)

Compound: CN(C)CCNC(=O)c1cccc(-c2cnc3c(NC=O)cc(-c4cccs4)cn23)c1
- IC50 [11]: > 66.6 µM (inactive)
- IC50 [12]: 1.82 µM (active)
- AC50 [13]: 15.6 µM (active)
- AC50 [14]: 8.36 µM (active)

Compound: Cc1cc(Br)ccc1NC(=O)CSc1nnc(CN2CCOCC2)n1C
- IC50 [1]: 40.2 µM (inactive)
- IC50 (Steroidogenic factor 1): 24.7 µM (inactive)
- IC50 [2]: 35.9 µM (inactive)

Compound: CN(C)c1ccc(C=Cc2ccnc3ccccc23)cc1N
- AC50 [15]: 26 µM (active)

Compound: COc1cccc(-c2cnc3c(NC=O)cc(-c4ccc(S(C)(=O)=O)cc4)cn23)c1
- IC50 (Fatty acid synthase [6]): 11.2 µM (active)
- IC50 (Fatty acid synthase [7]): 9.95 µM (active)

Compound: O=C(CSc1nc2ccccc2o1)NN=C/C=C/c1ccccc1
- IC50 [16]: > 69.5 µM (inactive)
- IC50 [3]: > 69.5 µM (inactive)

Compound: O=C(C1CCC1)N1CCCCN2[C@@H](CO)[C@H](c3ccc(-c4cccc(F)c4)cc3)[C@@H]2C1
- AC50 [17]: 0.227 µM (active)

Compound: Cc1ccccc1-n1c(SCC(=O)N/N=C/C=C/c2ccccc2[N+](=O)[O-])nc2ccccc2c1=O
- AC50 [18]: > 195 µM (inactive)
- IC50 [16]: > 69.5 µM (inactive)
- IC50 [3]: 4.51 µM (active)

Compound: Cc1cc(N2CCN(C)CC2)nc2ccc(NC(=S)NCCCN3CCc4ccccc4C3)cc12
- AC50 [13]: 28.1 µM (active)
- AC50 [14]: 3.85 µM (active)
